Laboratory results from US20230233489A1 (priority 2020, published 2023).
Where “and” joins values, the source holds several entries; their conditions need not be identical. Identical values can stand only once. Like-named read-outs stand apart in the source and are kept apart here.

Columns and labels:
[1] = system: RAC1; details: IBD patients; cited from earlier work
[2] = system: SARS-CoV-2; details: human, in vivo
[3] = system: SARS-CoV-2; details: human, in vivo; remark: listed apart in the source
[4] = system: Ebola virus; details: mouse, in vivo; cited from earlier work
[5] = cited from earlier work
[6] = system: SARS-CoV-2; details: cited from earlier work
[7] = system: Ebola virus; details: read-out: 50% inhibitive concentration [IC50]; cited from earlier work
[8] = in vivo; cited from earlier work
[9] = system: SARS-CoV-1; details: cited from earlier work
[10] = system: MERS-CoV; details: read-out: 50% effective concentration [EC50]; cited from earlier work

S=c1nc[nH]c2nc[nH]c12 [Mercaptopurine, mercaptopurine]
RAC1 expression [1]: lower RAC1 expression

COc1ccccc1OCCNCC(O)COc1cccc2[nH]c3ccccc3c12 (centres unmarked) [carvedilol]
odds ratio of a positive laboratory test result for SARS-CoV-2 [2]: 0.74 and 0.90 and 0.73

COc1ccc2[nH]cc(CCNC(C)=O)c2c1 [melatonin]
odds ratio of SARS-CoV-2 positive test [2]: 0.52 and 0.61 and 0.80 | odds ratio of a positive laboratory test result for SARS-CoV-2 [3]: 0.36 and 0.35 and 0.56 and 0.46

CN(C)CCOc1ccc(/C(=C(/CCCl)c2ccccc2)c2ccccc2)cc1 [toremifene]
survival rate [4]: significantly improved survival rate | bound to plasma protein [5]: 99% | IC50 [6]: 3.58 µM | IC50 [7]: ~1 µM | bioavailability [8]: good | EC50 [9]: 12 µM | EC50 [10]: 12.9 µM
